Assay results reported in patent US11766430B2, “Methods of using a phenoxypropylamine compound to treat pain” (Minerva Neurosciences, Inc., priority 2018, dated 2023).
Where “and” joins values, the source holds several entries; their conditions need not be identical. Identical values can stand only once.

Tested on: carrageenan-induced mechanical hyperalgesia in rats
Test: Carrageenan-induced mechanical hyperalgesia, paw pressure test, time course to 240 min (Example 2)
Type: in vivo, male Sprague-Dawley rats
Description: In this model, inflammation is induced by intraplantar injection of carrageenan (2%) into the right hindpaw of the rat. Three hours later, reaction thresholds are measured using the paw pressure test. Pressure is gradually applied to both hind paws (inflamed and control) of the rat, and reaction thresholds are determined as the pressure (g) required to elicit paw withdrawal or vocalization. Morphine (3 mg/kg, s.c.) was used as a positive control.
The experiments in this study used fifty (50) male Sprague-Dawley rats (SPF status, Janvier, France), each weighing 204-260 grams. The rats were housed in a temperature (20-24° C.) and relative humidity (45%-65%) controlled room and acclimated to an artificial day/night cycle of 12 hours light (6.30 a.m. to 6.30 p.m.)/12 hours darkness. Rats had free access to sterilized tap water and were fed ad libitum with pelleted complete diet (reference A04, S.A.F.E.). Rats were housed 4 per cage (cages Type E) and were acclimated for a period of at least 5 days before any testing. Each rat was identified by tail markings. Based on the SPF status of the animal facilities, there is no reason to expect that contaminants were present in the food, water or bedding, at levels capable of interfering with the results of the tests.
Pain Test: Static mechanical hyperalgesia was assessed using the Paw Pressure test or Randall & Selitto test (Randall, L. O. and Selitto, J. J., A method for measurement of analgesic activity on inflamed tissue, Arch Int Pharmacodyn, 1957(111): 409-419). This test requires the application of an increasing pressure on the hind paws between a flat surface and a blunt pointer. This test is usually used with animals with one hind paw inflamed by an injection or injured by ligation, and one normal hind paw, to evaluate drugs for analgesic action. The apparatus exerts a steadily increasing force and reaction threshold is determined as the pressure (g) required to elicit paw withdrawal and/or vocalization. In the experiment, animals were gently handled by the experimenter and static mechanical hyperalgesia was assessed. Each reaction threshold measurement was done for both hind paws.
Five (5) experimental groups of 10 rats each were used. Each group was first injected with of 100 μL of a 2% carrageenan suspension in the plantar aspect of the right hindpaw. Three hours after carrageenan injection, paw withdrawal threshold was measured using the paw pressure test (Baseline). The 5 groups were then administered the following: • Group 1: vehicle (0.5% HPMC), i.p., solution (negative control); • Group 2: MIN-117 (0.01 mg/kg, i.p.) in 0.5% HPMC, suspension; • Group 3: MIN-117 (0.1 mg/kg, i.p.) in 0.5% HPMC, suspension; • Group 4: MIN-117 (1 mg/kg, i.p.) in 0.5% HPMC, suspension; and • Group 5: morphine (3 mg/kg, s.c.) in 0.9% NaCl, solution (positive control).
After administering vehicle, MIN-117, or morphine, the antihyperalgesic effect of the compounds was evaluated using the paw pressure test at 0 min. (T0), 30 min., 60 min., 120 min., and 240 min.
Vehicle and MIN-117 were administered intraperitoneally at 10 mL/kg. Morphine was subcutaneously administered at 5 mL/kg. Dosing and testing were performed in a random order by a blinded experimenter except for the morphine-treated group. Doses were expressed in terms of free active substance. Rats were sacrificed at the end of the experiment by CO2 inhalation pending subsequent removal by a certified company.
Results were assessed as: the paw withdrawal threshold (mean±s.e.m.) in grams of contact pressure for each group, calculated from individual paw withdrawal thresholds; the percentage of variation of the paw withdrawal threshold calculated from the mean value of the vehicle-treated group; and/or the percentage of activity. To determine a statistical effect of the test substance and the reference substance, data were analyzed by a non-parametrical test. The significance level was p<0.05.

[1] = 0.01 mg/kg i.p., 30 min, hydrochloride
[2] = 0.01 mg/kg i.p., 60 min, hydrochloride
[3] = 0.01 mg/kg i.p., 120 min, hydrochloride
[4] = 0.01 mg/kg i.p., 240 min, hydrochloride
[5] = 0.01 mg/kg i.p., Baseline, hydrochloride
[6] = 0.01 mg/kg i.p., T0 (baseline before dosing)
[7] = 0.01 mg/kg i.p., T0 (baseline before dosing), hydrochloride
[8] = 0.01 mg/kg i.p., T0 + 30 min, hydrochloride
[9] = 0.01 mg/kg i.p., T0 + 60 min, hydrochloride
[10] = 0.1 mg/kg i.p., 30 min, hydrochloride
[11] = 0.1 mg/kg i.p., 60 min, hydrochloride
[12] = 0.1 mg/kg i.p., 120 min, hydrochloride
[13] = 0.1 mg/kg i.p., 240 min, hydrochloride
[14] = 0.1 mg/kg i.p., Baseline, hydrochloride
[15] = 0.1 mg/kg i.p., T0 (baseline before dosing)

SMILES: Cc1nnc(-c2cc3c(OC[C@@H](O)CN4CCC(c5ccc(Cl)c(Cl)c5)CC4)cccc3o2)o1.Cl [MIN-117, (2S)-1-(4-(3,4-dichlorophenyl)piperidin-1-yl)-3-((2-(5-methyl-1,3,4-oxadiazol-2-yl)benzofuran-4-yl)oxy)propan-2-ol hydrochloride]
- Nociceptive threshold, control paw, individual rats [1]: 360 g (4×) and 380 g (3×) and 420 g and 340 g and 280 g
- Nociceptive threshold, injured paw, individual rats [1]: 180 g (3×) and 220 g and 160 g (2×) and 140 g (2×) and 200 g (2×)
- Nociceptive threshold, control paw, individual rats [2]: 380 g and 340 g (3×) and 320 g (2×) and 360 g (2×) and 420 g and 300 g
- Nociceptive threshold, injured paw, individual rats [2]: 220 g (3×) and 160 g (3×) and 180 g (2×) and 140 g (2×)
- Nociceptive threshold, control paw, individual rats [3]: 440 g and 360 g (2×) and 340 g and 320 g and 400 g (2×) and 420 g (2×) and 380 g
- Nociceptive threshold, injured paw, individual rats [3]: 300 g and 180 g (2×) and 160 g (2×) and 200 g (4×) and 220 g
- Nociceptive threshold, control paw, individual rats [4]: 340 g and 360 g (2×) and 380 g (2×) and 300 g and 320 g (3×) and 420 g
- Nociceptive threshold, injured paw, individual rats [4]: 200 g (3×) and 180 g (4×) and 160 g (2×) and 140 g
- Nociceptive threshold, control paw, individual rats [5]: 400 g (3×) and 380 g (3×) and 320 g and 360 g and 340 g (2×)
- Nociceptive threshold, injured paw, individual rats [5]: 240 g and 180 g (5×) and 200 g (2×) and 160 g (2×)
- % activity, injured paw [6]: 2%
- % variation vs control paw, injured paw [6]: −50%
- % variation vs vehicle-treated group, injured paw [6]: 2%
- Nociceptive threshold, control paw (mean ± s.e.m.) [7]: 370.0 ± 9.1 g and 370 g
- Nociceptive threshold, injured paw (mean ± s.e.m.) [7]: 186 ± 7.3 g and 186 g
- % activity, injured paw (0.01 mg/kg i.p., T0 + 30 min): −1%
- % variation vs control paw, injured paw (0.01 mg/kg i.p., T0 + 30 min): −51%
- % variation vs pre-drug threshold, injured paw (0.01 mg/kg i.p., T0 + 30 min): −5%
- Nociceptive threshold, control paw (mean ± s.e.m.) (0.01 mg/kg i.p., T0 + 30 min): 362 g
- % variation vs vehicle-treated group, injured paw [8]: −1% and 1%
- Nociceptive threshold, injured paw (mean ± s.e.m.) [8]: 176 ± 8.3 g and 176 g
- % activity, injured paw (0.01 mg/kg i.p., T0 + 60 min): −6%
- % variation vs control paw, injured paw (0.01 mg/kg i.p., T0 + 60 min): −49%
- % variation vs pre-drug threshold, injured paw (0.01 mg/kg i.p., T0 + 60 min): −4%
- Nociceptive threshold, control paw (mean ± s.e.m.) (0.01 mg/kg i.p., T0 + 60 min): 348 g
- % variation vs vehicle-treated group, injured paw [9]: −5% and 5%
- Nociceptive threshold, injured paw (mean ± s.e.m.) [9]: 178 ± 10.1 g and 178 g
- % activity, injured paw (0.01 mg/kg i.p., T0 + 120 min): 9%
- % variation vs control paw, injured paw (0.01 mg/kg i.p., T0 + 120 min): −48%
- % variation vs pre-drug threshold, injured paw (0.01 mg/kg i.p., T0 + 120 min): 8%
- % variation vs vehicle-treated group, injured paw (0.01 mg/kg i.p., T0 + 120 min): 8%
- Nociceptive threshold, control paw (mean ± s.e.m.) (0.01 mg/kg i.p., T0 + 120 min): 384 g
- Nociceptive threshold, injured paw (mean ± s.e.m.) (0.01 mg/kg i.p., T0 + 120 min, hydrochloride): 200 ± 12.6 g and 200 g
- % activity, injured paw (0.01 mg/kg i.p., T0 + 240 min): −5%
- % variation vs control paw, injured paw (0.01 mg/kg i.p., T0 + 240 min): −49%
- % variation vs pre-drug threshold, injured paw (0.01 mg/kg i.p., T0 + 240 min): −4%
- % variation vs vehicle-treated group, injured paw (0.01 mg/kg i.p., T0 + 240 min): −4%
- Nociceptive threshold, control paw (mean ± s.e.m.) (0.01 mg/kg i.p., T0 + 240 min): 350 g
- Nociceptive threshold, injured paw (mean ± s.e.m.) (0.01 mg/kg i.p., T0 + 240 min, hydrochloride): 178 ± 6.3 g and 178 g
- Effect on injured paw withdrawal threshold vs vehicle-treated group (in words) (0.01 mg/kg i.p., time course 30-240 min): did not induce any significant increase
- Nociceptive threshold, control paw, individual rats [10]: 440 g and 320 g (3×) and 460 g and 300 g and 360 g and 340 g (3×)
- Nociceptive threshold, injured paw, individual rats [10]: 200 g (4×) and 160 g (2×) and 180 g (4×)
- Nociceptive threshold, control paw, individual rats [11]: 360 g (3×) and 300 g (2×) and 420 g and 400 g and 320 g (2×) and 340 g
- Nociceptive threshold, injured paw, individual rats [11]: 180 g (2×) and 140 g and 160 g (3×) and 200 g (3×) and 220 g
- Nociceptive threshold, control paw, individual rats [12]: 380 g and 280 g and 420 g (2×) and 300 g and 340 g (3×) and 360 g (2×)
- Nociceptive threshold, injured paw, individual rats [12]: 160 g (3×) and 140 g and 220 g and 200 g (2×) and 180 g (3×)
- Nociceptive threshold, control paw, individual rats [13]: 400 g (2×) and 320 g and 340 g and 280 g and 360 g (3×) and 380 g and 300 g
- Nociceptive threshold, injured paw, individual rats [13]: 180 g (3×) and 160 g (3×) and 140 g and 220 g (2×) and 200 g
- Nociceptive threshold, control paw, individual rats [14]: 420 g (2×) and 380 g (2×) and 400 g (2×) and 360 g (2×) and 340 g and 320 g
- Nociceptive threshold, injured paw, individual rats [14]: 200 g (3×) and 180 g (3×) and 160 g (4×)
- % activity, injured paw [15]: −2%
- % variation vs control paw, injured paw [15]: −53%
- % variation vs vehicle-treated group, injured paw [15]: −2%
- Nociceptive threshold, control paw (mean ± s.e.m.) (0.1 mg/kg i.p., T0 (baseline before dosing), hydrochloride): 378.0 ± 10.5 g and 378 g
